The NIST ThermoML archive (doi:10.1021/je2012555)

How the values were obtained:
[1] = mn = molality of the nth substance listed, in mol/kg; details: 101 kPa, Liquid; for mass density: Vibrating tube method
[2] = cn = amount concentration of the nth substance listed, in mol/dm3; details: 298.15 K, 101 kPa, Liquid, Vibrating tube method

CNC(=O)CNC(C)=O [2-acetamido-N-methylacetamide] + O
[1]
Details | apparent molar heat capacity [J/K/mol] | mass density [kg/m3]
298.15 K, m1 = 0.04565 | – | 998.056
298.15 K, m1 = 0.0479 | 328.9 | –
298.15 K, m1 = 0.05924 | – | 998.352
298.15 K, m1 = 0.0715 | 328.6 | –
298.15 K, m1 = 0.07804 | – | 998.754
298.15 K, m1 = 0.09293 | – | 999.062
298.15 K, m1 = 0.0958 | 327.8 | –
298.15 K, m1 = 0.0987 | – | 999.177
298.15 K, m1 = 0.1439 | 326 | –
298.15 K, m1 = 0.153 | – | 1000.32
298.15 K, m1 = 0.1615 | – | 1000.5
298.15 K, m1 = 0.1766 | – | 1000.79
298.15 K, m1 = 0.1889 | – | 1001.04
298.15 K, m1 = 0.1912 | 324 | –
303.15 K, m1 = 0.0479 | 334.9 | –
303.15 K, m1 = 0.0715 | 336.1 | –
303.15 K, m1 = 0.0958 | 334.3 | –
303.15 K, m1 = 0.1439 | 333.6 | –
303.15 K, m1 = 0.1912 | 330.6 | –
308.15 K, m1 = 0.0479 | 343 | –
308.15 K, m1 = 0.0715 | 343.3 | –
308.15 K, m1 = 0.0958 | 342.7 | –
308.15 K, m1 = 0.1439 | 343.1 | –
308.15 K, m1 = 0.1912 | 342.7 | –
313.15 K, m1 = 0.0479 | 349.6 | –
313.15 K, m1 = 0.0715 | 350 | –
313.15 K, m1 = 0.0958 | 349.6 | –
313.15 K, m1 = 0.1439 | 350.6 | –
313.15 K, m1 = 0.1912 | 350.9 | –
318.15 K, m1 = 0.0479 | 357 | –
318.15 K, m1 = 0.0715 | 358.4 | –
318.15 K, m1 = 0.0958 | 359.1 | –
318.15 K, m1 = 0.1439 | 358.2 | –
318.15 K, m1 = 0.1912 | 360 | –
323.15 K, m1 = 0.0479 | 360.1 | –
323.15 K, m1 = 0.0715 | 361.7 | –
323.15 K, m1 = 0.0958 | 361.6 | –
323.15 K, m1 = 0.1439 | 361.4 | –
323.15 K, m1 = 0.1912 | 363 | –
328.15 K, m1 = 0.0479 | 365.8 | –
328.15 K, m1 = 0.0715 | 366.7 | –
328.15 K, m1 = 0.0958 | 367.2 | –
328.15 K, m1 = 0.1439 | 369.7 | –
328.15 K, m1 = 0.1912 | 369.1 | –

CNC(=O)[C@H](CC(C)C)NC(C)=O [(S)-2-acetamido-N,4-dimethylpentanamide] + O
[1]
Details | apparent molar heat capacity [J/K/mol] | mass density [kg/m3]
298.15 K, m1 = 0.0463 | 681 | –
298.15 K, m1 = 0.04684 | – | 997.65
298.15 K, m1 = 0.0559 | 682.8 | –
298.15 K, m1 = 0.07 | 682.5 | –
298.15 K, m1 = 0.08312 | – | 998.122
298.15 K, m1 = 0.0936 | 680.2 | –
298.15 K, m1 = 0.09402 | – | 998.23
298.15 K, m1 = 0.1007 | – | 998.343
298.15 K, m1 = 0.108 | – | 998.407
298.15 K, m1 = 0.1129 | 680 | –
298.15 K, m1 = 0.1157 | – | 998.565
298.15 K, m1 = 0.13 | – | 998.75
298.15 K, m1 = 0.1414 | – | 998.921
298.15 K, m1 = 0.1423 | 681.9 | –
298.15 K, m1 = 0.1613 | – | 999.112
303.15 K, m1 = 0.0463 | 683.5 | –
303.15 K, m1 = 0.0559 | 684.7 | –
303.15 K, m1 = 0.07 | 684.3 | –
303.15 K, m1 = 0.0936 | 682.6 | –
303.15 K, m1 = 0.1129 | 682.2 | –
303.15 K, m1 = 0.1423 | 684.4 | –
308.15 K, m1 = 0.0463 | 687.5 | –
308.15 K, m1 = 0.0559 | 688.6 | –
308.15 K, m1 = 0.07 | 687.3 | –
308.15 K, m1 = 0.0936 | 688.3 | –
308.15 K, m1 = 0.1129 | 686.7 | –
308.15 K, m1 = 0.1423 | 687.4 | –
313.15 K, m1 = 0.0463 | 690.1 | –
313.15 K, m1 = 0.0559 | 691.3 | –
313.15 K, m1 = 0.07 | 690.9 | –
313.15 K, m1 = 0.0936 | 690.3 | –
313.15 K, m1 = 0.1129 | 689.6 | –
313.15 K, m1 = 0.1423 | 691.1 | –
318.15 K, m1 = 0.0463 | 691.6 | –
318.15 K, m1 = 0.0559 | 692.3 | –
318.15 K, m1 = 0.07 | 692.3 | –
318.15 K, m1 = 0.0936 | 691.5 | –
318.15 K, m1 = 0.1129 | 691.7 | –
318.15 K, m1 = 0.1423 | 692.4 | –
323.15 K, m1 = 0.0463 | 693.1 | –
323.15 K, m1 = 0.0559 | 694.7 | –
323.15 K, m1 = 0.07 | 694.8 | –
323.15 K, m1 = 0.0936 | 693.4 | –
323.15 K, m1 = 0.1129 | 693.6 | –
323.15 K, m1 = 0.1423 | 694.8 | –
328.15 K, m1 = 0.0463 | 695.9 | –
328.15 K, m1 = 0.0559 | 696.8 | –
328.15 K, m1 = 0.07 | 696.9 | –
328.15 K, m1 = 0.0936 | 695.8 | –
328.15 K, m1 = 0.1129 | 697.5 | –
328.15 K, m1 = 0.1423 | 696.4 | –

CNC(=O)[C@H](C)NC(C)=O [(S)-2-acetamido-N-methylpropanamide] + O
[1]
Details | apparent molar heat capacity [J/K/mol] | mass density [kg/m3]
298.15 K, m1 = 0.02067 | – | 997.447
298.15 K, m1 = 0.04272 | – | 997.844
298.15 K, m1 = 0.0448 | 431 | –
298.15 K, m1 = 0.0545 | 429.7 | –
298.15 K, m1 = 0.0683 | 431.5 | –
298.15 K, m1 = 0.0751 | – | 998.437
298.15 K, m1 = 0.0909 | 429.6 | –
298.15 K, m1 = 0.1031 | – | 998.944
298.15 K, m1 = 0.1226 | – | 999.278
298.15 K, m1 = 0.1376 | 427.5 | –
298.15 K, m1 = 0.1431 | – | 999.644
298.15 K, m1 = 0.1816 | – | 1000.36
303.15 K, m1 = 0.0448 | 436.8 | –
303.15 K, m1 = 0.0545 | 437.5 | –
303.15 K, m1 = 0.0683 | 437.5 | –
303.15 K, m1 = 0.0909 | 437 | –
303.15 K, m1 = 0.1376 | 434.7 | –
308.15 K, m1 = 0.0448 | 444 | –
308.15 K, m1 = 0.0545 | 444.1 | –
308.15 K, m1 = 0.0683 | 442.3 | –
308.15 K, m1 = 0.0909 | 442.9 | –
308.15 K, m1 = 0.1376 | 442.4 | –
313.15 K, m1 = 0.0448 | 448 | –
313.15 K, m1 = 0.0545 | 447.7 | –
313.15 K, m1 = 0.0683 | 450.6 | –
313.15 K, m1 = 0.0909 | 450.6 | –
313.15 K, m1 = 0.1376 | 448.4 | –
318.15 K, m1 = 0.0448 | 453.6 | –
318.15 K, m1 = 0.0545 | 453.6 | –
318.15 K, m1 = 0.0683 | 453.3 | –
318.15 K, m1 = 0.0909 | 453.9 | –
318.15 K, m1 = 0.1376 | 453.5 | –
323.15 K, m1 = 0.0448 | 457.5 | –
323.15 K, m1 = 0.0545 | 458.3 | –
323.15 K, m1 = 0.0683 | 457.3 | –
323.15 K, m1 = 0.0909 | 458.2 | –
323.15 K, m1 = 0.1376 | 458 | –
328.15 K, m1 = 0.0448 | 459.8 | –
328.15 K, m1 = 0.0545 | 462.9 | –
328.15 K, m1 = 0.0683 | 462.4 | –
328.15 K, m1 = 0.0909 | 461.2 | –
328.15 K, m1 = 0.1376 | 461.5 | –

CNC(=O)[C@H](Cc1cnc[nH]1)NC(C)=O [N-acetyl-N'-methyl-L-alpha-histidinamide] + O
[2]
Details | mass density [kg/m3]
c1 = 0.03827 | 998.76
c1 = 0.04755 | 999.201
c1 = 0.04924 | 999.284
c1 = 0.05453 | 999.47
c1 = 0.05796 | 999.649
c1 = 0.06518 | 999.989
c1 = 0.0682 | 1000.14
c1 = 0.07517 | 1000.41
c1 = 0.07826 | 1000.59
c1 = 0.09152 | 1001.16
c1 = 0.0919 | 1001.16
c1 = 0.09948 | 1001.49
c1 = 0.1126 | 1002.02
c1 = 0.1188 | 1002.28

apparent molar heat capacity [J/K/mol], [1]
Details | m1 = 0.0546 | m1 = 0.0551 | m1 = 0.0616 | m1 = 0.0777 | m1 = 0.091 | m1 = 0.109 | m1 = 0.1358 | m1 = 0.137
298.15 K | 595.6 | 594.5 | 600.5 | 595.1 | 596.7 | 598.8 | 598.5 | 597.9
303.15 K | 606.8 | 610.2 | 612 | 609.8 | 608.7 | 610.9 | 612.6 | 608
308.15 K | 621.8 | 618.1 | 620.9 | 621.4 | 619.4 | 622.5 | 621 | 624.6
313.15 K | 634 | 628.9 | 631.6 | 629.5 | 635.5 | 630.5 | 637.1 | 631.6
318.15 K | 640.4 | 637 | 642.3 | 638 | 640.8 | 637.5 | 638.9 | 643.6
323.15 K | 648.2 | 652 | 651.7 | 648.2 | 646.7 | 654 | 650.6 | 650.9
328.15 K | 657.3 | 659.5 | 657 | 656.4 | 656.4 | 660.5 | 660 | 656
